What was measured:
[1] = test system: RAW264.7 mouse macrophage cell line; assay: TNFα levels after LPS stimulation; assay type: cell-based; settings: Dexamethasone, concentration not given; LPS 100 ng/mL; 24 h
Description: (§1) Cultures of the RAW264.7 mouse macrophage cell line were pre-treated with 10-Hydroxy-2-decenoic acid (QBA) for 1 hour prior to stimulation with lipopolysaccharide (LPS, 100 ng/mL). After 24 hours of incubation, interleukin […] (IL-1β) and tumor necrosis factor-α (TNFα) levels were determined by Luminex technology and cell numbers were measured using Alamar Blue. Results are given as a ratio of cytokine concentration/cell number.

[2] = test system: RAW264.7 mouse macrophage cell line; assay: IL-1β levels after LPS stimulation; assay type: cell-based; settings: Dexamethasone, concentration not given; LPS 100 ng/mL; 24 h
Description: as §1

[3] = test system: 19-20 month-old male rats; assay: Elevated plus-maze, rats fed QBA alone or QBA+DHA; assay type: in vivo, rat; settings: QBA 0, DHA 0.07% weight of diet
Description: Rats were fed QBA and subjected to an elevated plus-maze. The elevated plus-maze was elevated ˜85 cm above the floor and consisted of two open and two closed arms of the same size (50×10 cm). The closed arms were surrounded by walls 40 cm high, and the arms were constructed of black acrylic slabs that radiated from a central platform (10×10 cm) to form a plus sign. Each rat was placed in the central platform facing one of the open arms, and its behavior was recorded during a 5-min testing period with video capture software. More time spent in the open arms is an indication of reduced anxiety-like state. Rats were tested at 18 months old (N=11-13 per group).
The dose-response characteristics of 10-Hydroxy-2-decenoic acid's (QBA's) in combination with DHA for potential brain health benefits during aging were assessed for mood in 19-20 month-old male rats (N=11-14 per group). Rats were fed QBA alone or QBA+DHA and subjected to an elevated plus-maze.

[4] = Weight after Barnes maze psychological stress (Example 9); assay type: in vivo, rat; settings: for % Change (Weight after Barnes maze): DHA 0.07% weight of diet
Description: Aged male rats were fed 10-Hydroxy-2-decenoic acid (QBA) for approximately […] from 12-months to 20-months of age and the weight of rats was recorded (N=11-14 per group). During the last month of QBA feeding animals were subjected to the psychological stress of the Barnes maze.

[5] = Body weight of aged male rats fed QBA and/or DHA (Example 8); assay type: in vivo, rat; settings: DHA 0.07% weight of diet
Description: Aged male rats were fed 10-Hydroxy-2-decenoic acid (QBA) for approximately […] from 12-months to 20-months of age and the weight of rats was recorded.

[6] = as above; assay type: in vivo, rat; settings: DHA 0.07% weight of diet; remark: listed apart in the source

SMILES: C[C@@H]1C[C@H]2[C@@H]3CCC4=CC(=O)C=C[C@]4(C)[C@@]3(F)[C@@H](O)C[C@]2(C)[C@@]1(O)C(=O)CO [Dexamethasone, reference compound]
- TNFα (pg/mL)/Cell Numbers [1]: 0.153 (pg/mL)/Cell Numbers
- IL-1β (pg/mL)/Cell Numbers [2]: 0.0013 (pg/mL)/Cell Numbers

SMILES: CC/C=C\C/C=C\C/C=C\C/C=C\C/C=C\C/C=C\CCC(=O)O [DHA, all-cis-docosa-4,7,10,13,16,19-hexaenoic acid]
- Time (s) in Open Arm [3]: 32.4 s
- % Change (Weight after Barnes maze) ([4]; behavior stress day 7): −0.76%
- % Change (Weight after Barnes maze) ([4]; behavior stress day 14): −0.57%
- % Change (Weight after Barnes maze) ([4]; behavior stress day 21): −0.88%
- % Change (Weight after Barnes maze) ([4]; behavior stress day 28): −0.56%
- % Change (Weight after Barnes maze) ([4]; behavior stress day 35): −0.23%
- weight loss associated with the psychological stress ([4]; summary of Table 15): did not produce the same results
- Avg Wt ([5]; study day 0): 552.9 g
- Avg Wt ([5]; study day 4): 568.8 g
- Avg Wt ([5]; study day 11): 579.8 g
- Avg Wt ([5]; study day 18): 592.4 g
- Avg Wt ([5]; study day 25): 594.4 g
- Avg Wt ([5]; study day 32): 600.5 g
- Avg Wt ([5]; study day 39): 605.1 g
- Avg Wt ([5]; study day 46): 607.2 g
- Avg Wt ([5]; study day 53): 610.6 g
- Avg Wt ([5]; study day 67): 616.2 g
- Avg Wt ([5]; study day 74): 617.6 g
- Avg Wt ([5]; study day 81): 619.7 g
- Avg Wt ([5]; study day 88): 623.2 g
- Avg Wt ([5]; study day 95): 624.8 g
- Avg Wt ([5]; study day 102): 629.4 g
- Avg Wt ([5]; study day 109): 632.9 g
- Avg Wt ([5]; study day 116): 636.3 g
- Avg Wt ([5]; study day 123): 631.2 g
- Avg Wt ([5]; study day 137): 633.1 g
- Avg Wt ([5]; study day 151): 634.6 g
- Avg Wt ([6]; study day 60): 614.6 g
- Avg Wt ([6]; study day 130): 635.2 g
- Avg Wt ([6]; study day 144): 632.5 g
